Data published in PMC4008608, “The Tertiary Origin of the Allosteric Activation of E. coli Glucosamine-6-Phosphate Deaminase Studied by Sol-Gel Nanoencapsulation of Its T Conformer” (PLoS ONE, 2014).

Assays:
[1] = biological target: T1, EcGNPDA (glucosamine-6-phosphate deaminase from Escherichia coli) (Escherichia coli, UniProt P0A759); test: near-UV circular dichroism of enzyme-doped gels, […] nm; format: binding; conditions: allosteric activator, 1 mM; ligand-free R-state gel; 100 mM Tris-HCl pH 7.7, 30°C
T1 construct: gene nagB; full-length homohexamer; plasmid pTZ18RnagB in E. coli IBPC590 Δnag (stated for the mutant); encapsulated in silica sol-gel in T quaternary conformation (mutant F also in solution)

[2] = biological target: T2, EcGNPDA (glucosamine-6-phosphate deaminase from Escherichia coli) (Escherichia coli, UniProt P0A759, C118S/D165C/S206W/C228S/C239S); test: initial velocity fitted to MWC equation; format: biochemical; conditions: mutant F, soluble enzyme; MWC R-state substrate dissociation constant (stronger state) from velocity data; cooperative; read-out: K R ^a
T2 construct: gene nagB; full-length homohexamer; plasmid pTZ18RnagB in E. coli IBPC590 Δnag (stated for the mutant); encapsulated in silica sol-gel in T quaternary conformation (mutant F also in solution)
Source text: initial velocity fitted to MWC equation on […] (glucosamine-6-phosphate deaminase from Escherichia coli)

Structure (SMILES)	near-UV circular dichroism of enzyme-doped gels, 274 nm [1]	Kd [2] [µM]
CC(=O)N[C@H]1C(O)O[C@H](COP(=O)(O)O)[C@@H](O)[C@@H]1O (some centres unmarked) [GlcNAc6P]	Only the enzyme in the R state when in presence of the activator, displays	–
N[C@H]1C(O)O[C@H](COP(=O)(O)O)[C@@H](O)[C@@H]1O (some centres unmarked) [GlcN6P]	–	440 ± 10
